Measured values as given in US10858365B2, “Triazolo-pyrimidine compounds and uses thereof” (Dizal (Jiangsu) Pharmaceutical Co., Ltd., priority 2018, dated 2020).

Columns and labels:
Assay type in all cases: cell-based
[1] = molecular target: hA1 (Homo sapiens (Human), UniProt P30542); test: FLIPR inhibition assay in hADORA1/CHO (hA1 expressing) cells; conditions: hADORA1/CHO cells, FLIPR calcium, adenosine stimulation; read-out: cAMP & FLIPR IC50 (nM) hA1
Procedure: hADORA1/CHO (hA1 expressing) cells (Genscript) were plated at 1×10^4 cells/well into 384-well polystyrene plates one day before starting the experiment. On the day of experiment, the supernatant was discard and replaced with 40 µL of dye (FLIPR calcium 5 Assay Kit) per well and the plates were incubated for 60 mins at 37° C. plus 5% CO2. Then testing compounds were added at different concentrations for FLIPR™ inhibition assay. After a 400 s incubation with compound, […] adenosine was added into the cells, and the signal was captured by FLIPR.

[2] = molecular target: hA2a (Homo sapiens (Human), UniProt P29274); test: cAMP inhibition assay in hA2a/CHO cells; conditions: adenosine stimulation, read-out: cAMP & FLIPR IC50 (nM) hA2a
Procedure: (§1) hA2a/CHO, hA2b/CHO and mA2a/CHO (Genscript) were plated at 5×10^3 cells/well into 384-well polystyrene plates at the day of experiment. Compounds were pre-incubated with cells for 30 min at 37° C., 5% CO2. Then […] adenosine was added to the cells and incubated for 30 min at 37° C., 5% CO2. Detection reagent (CISBIO) was added and the plates were incubated for 60 min at room temperature. The signal was captured by Envision.
FLIPR™ and cAMP inhibition activities of exemplary compounds in different adenosine receptor over-expressing cell lines are shown in Table 4 below.

[3] = molecular target: hA2b (Homo sapiens (Human), UniProt P29275); test: cAMP inhibition assay in hA2b/CHO cells; conditions: adenosine stimulation, read-out: cAMP & FLIPR IC50 (nM) hA2b
Procedure: as §1

[4] = molecular target: mA2a (Mus musculus (Mouse), UniProt Q60613); test: cAMP inhibition assay in mA2a/CHO cells; conditions: adenosine stimulation, read-out: cAMP & FLIPR IC50 (nM) mA2a
Procedure: as §1

Chain of mA2a (Q60613 whole entry): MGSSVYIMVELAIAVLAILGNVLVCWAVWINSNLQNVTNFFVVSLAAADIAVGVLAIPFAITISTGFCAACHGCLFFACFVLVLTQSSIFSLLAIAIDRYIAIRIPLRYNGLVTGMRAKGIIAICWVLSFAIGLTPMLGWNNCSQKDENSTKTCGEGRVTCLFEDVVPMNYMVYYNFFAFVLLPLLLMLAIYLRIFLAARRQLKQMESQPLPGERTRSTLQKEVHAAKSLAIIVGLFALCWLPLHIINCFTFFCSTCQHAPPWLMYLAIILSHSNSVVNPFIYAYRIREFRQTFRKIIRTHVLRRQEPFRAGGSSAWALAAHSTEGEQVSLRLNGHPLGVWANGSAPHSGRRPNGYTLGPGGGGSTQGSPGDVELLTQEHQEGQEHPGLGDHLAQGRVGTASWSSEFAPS
Chain of hA2a (P29274 whole entry): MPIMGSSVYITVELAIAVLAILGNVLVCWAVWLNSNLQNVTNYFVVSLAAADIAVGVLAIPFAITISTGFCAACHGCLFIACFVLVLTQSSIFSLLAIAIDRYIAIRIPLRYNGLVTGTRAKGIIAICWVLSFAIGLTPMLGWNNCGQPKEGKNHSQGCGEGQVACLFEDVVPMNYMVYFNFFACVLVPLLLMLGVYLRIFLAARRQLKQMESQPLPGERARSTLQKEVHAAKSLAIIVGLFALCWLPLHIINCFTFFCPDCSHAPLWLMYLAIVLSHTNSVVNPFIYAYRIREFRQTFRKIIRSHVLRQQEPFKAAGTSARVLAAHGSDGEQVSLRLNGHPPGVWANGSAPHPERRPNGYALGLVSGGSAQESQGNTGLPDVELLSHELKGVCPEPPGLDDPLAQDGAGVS
Chain of hA1 (P30542 whole entry): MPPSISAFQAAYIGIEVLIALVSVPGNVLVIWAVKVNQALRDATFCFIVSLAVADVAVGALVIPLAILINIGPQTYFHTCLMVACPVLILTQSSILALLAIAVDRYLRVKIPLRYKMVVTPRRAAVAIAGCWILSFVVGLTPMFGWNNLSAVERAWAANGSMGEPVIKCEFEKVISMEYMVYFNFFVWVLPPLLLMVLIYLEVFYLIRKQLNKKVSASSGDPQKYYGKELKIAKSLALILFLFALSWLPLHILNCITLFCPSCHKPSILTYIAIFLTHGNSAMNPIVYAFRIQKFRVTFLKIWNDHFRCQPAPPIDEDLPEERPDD
Chain of hA2b (P29275 whole entry): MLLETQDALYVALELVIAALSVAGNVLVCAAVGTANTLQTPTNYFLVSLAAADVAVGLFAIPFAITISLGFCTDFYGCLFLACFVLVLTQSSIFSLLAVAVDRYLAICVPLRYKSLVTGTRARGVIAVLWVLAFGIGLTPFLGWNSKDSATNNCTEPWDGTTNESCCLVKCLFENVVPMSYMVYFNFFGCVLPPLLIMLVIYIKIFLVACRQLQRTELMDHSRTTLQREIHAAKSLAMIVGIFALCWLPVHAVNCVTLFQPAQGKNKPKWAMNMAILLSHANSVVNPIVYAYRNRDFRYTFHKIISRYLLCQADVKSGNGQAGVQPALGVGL

Cc1cc(-c2c(-c3ncco3)nc(N)n3nc(Cc4ncccc4F)nc23)cc(OC(F)F)n1 [Example 87]
IC50 [1]: 4050 nM | IC50 [2]: 27 nM | IC50 [3]: 5800 nM | IC50 [4]: 90 nM

Nc1nc(-c2ccc(F)cc2)c(-c2ccc3nccnc3c2)c2nc(Cc3ncccc3F)nn12 [Example 96, 7-(4-fluorophenyl)-2-((3-fluoropyridin-2-yl)methyl)-8-(quinoxalin-6-yl)-[l,2,4]triazolo[l,5-c] pyrimidin-5-amine]
IC50 [1]: 681 nM | IC50 [2]: 25 nM | IC50 [3]: 3800 nM | IC50 [4]: 123 nM

Cc1cnc(-c2nc(N)n3nc(Cc4c(F)cccc4F)nc3c2-c2ccc(=O)n(C)c2)o1 [Example 26, 5-(5-amino-2-(2,6-difluorobenzyl)-7-(5-methyloxazol-2-yl)-[l,2,4]triazolo[l,5-c]pyrimidin-8-yl)-1-methylpyridin-2(1H)-one]
IC50 [1]: 33 nM | IC50 [2]: 15 nM | IC50 [3]: 457 nM | IC50 [4]: 34 nM

Cn1cc(-c2c(-c3ccc(F)cc3)nc(N)n3nc(Cc4cccc(N)n4)nc23)ccc1=O [Example 35, 5-(5-amino-2-((6-aminopyridin-2-yl)methyl)-7-(4-fluorophenyl)-[1,2,4]triazolo[1,5-c]pyrimidin-8-yl)-1-methylpyridin-2(1H)-one]
IC50 [1]: 35 nM | IC50 [2]: 27 nM | IC50 [3]: 173 nM | IC50 [4]: 23 nM

Nc1nc(-c2ccc(F)cc2)c(-c2ccnc(C(F)(F)F)c2)c2nc(Cc3c(F)cccc3F)nn12 [Example 4, 2-[(2,6-difluorophenyl)methyl]-7-(4-fluorophenyl)-8-[2-(trifluoromethyl)pyridin-4-yl]-[1,2,4]triazolo[1,5-c]pyrimidin-5-amine]
IC50 [1]: 511 nM | IC50 [2]: 52 nM | IC50 [3]: 254 nM | IC50 [4]: 24 nM

Cc1cnc2ccc(-c3c(-c4ncco4)nc(N)n4nc(Cc5ncccc5F)nc34)cn12 [Example 99, 2-((3-fluoropyridin-2-yl)methyl)-8-(3-methylimidazo[l,2-a]pyridin-6-yl)-7-(oxazol-2-yl)-[l,2,4] triazolo[l,5-c]pyrimidin-5-amine]
IC50 [1]: 3.5 nM | IC50 [2]: 0.5 nM | IC50 [3]: 21 nM | IC50 [4]: 0.8 nM

Cc1nc(Cc2nc3c(-c4ccc5nccn5c4)c(-c4ccc(F)cc4)nc(N)n3n2)cs1 [Example 68, 7-(4-fluorophenyl)-8-[imidazo[1,2-a]pyridin-6-yl]-2-[(2-methyl-1,3-thiazol-4-yl)methyl]-[1,2,4]triazolo[1,5-c]pyrimidin-5-amine]
IC50 [1]: 29 nM | IC50 [2]: 3.2 nM | IC50 [3]: 614 nM | IC50 [4]: 12 nM

Cn1cc(-c2c(-c3ccc(Cl)cc3)nc(N)n3nc(Cc4ncccc4F)nc23)ccc1=O [Example 56, 5-(5-amino-7-(4-chlorophenyl)-2-((3-fluoropyridin-2-yl)methyl)-[1,2,4]triazolo[1,5-c]pyrimidin-8-yl)-l-methylpyridin-2(1H)-one]
IC50 [1]: 34 nM | IC50 [2]: 22 nM | IC50 [3]: 142 nM | IC50 [4]: 36 nM

Cn1cc(-c2c(Cl)nc(N)n3nc(Cc4c(F)cccc4F)nc23)ccc1=O [Example 28, 5-(5-amino-7-chloro-2-(2,6-difluorobenzyl)-[1,2,4]triazolo[1,5-c]pyrimidin-8-yl)-1-methylpyridin-2(1H)-one]
IC50 [1]: 1150 nM | IC50 [2]: 158 nM | IC50 [3]: 6420 nM | IC50 [4]: 217 nM

Cn1cc(-c2c(-c3ccc(F)cc3)nc(N)n3nc(Cc4cscn4)nc23)ccc1=O [Example 58, 5-[5-amino-7-(4-fluorophenyl)-2-[(1,3-thiazol-4-yl)methyl]-[1,2,4]triazolo[1,5-c]pyrimidin-8-yl]-1-methyl-1,2-dihydropyridin-2-one]
IC50 [1]: 25 nM | IC50 [2]: 29 nM | IC50 [3]: 2290 nM | IC50 [4]: 47 nM

Nc1nc(-c2ccc(F)cc2)c(-c2ccc3ncsc3c2)c2nc(Cc3ncccc3F)nn12 [Example 88, 8-(benzo[d]thiazol-6-yl)-7-(4-fluorophenyl)-2-((3-fluoropyridin-2-yl)methyl)-[1,2,4]triazolo[1,5-c]pyrmidin-5-amine]
IC50 [1]: 110 nM | IC50 [2]: 0.7 nM | IC50 [3]: 47 nM | IC50 [4]: 2.6 nM
